Assay results published in patent US7138246B2, “Methods for identifying or screening for agents that modulate 17β-HSD3” (Bristol-Myers Squibb Company, priority 2004, dated 2006).
Where two headings read alike, the source gives them in different places.

Columns and labels:
[1] = target: T1, 17β-HSD3 (Homo sapiens, UniProt P37058); experiment: 17β-HSD3 scintillation proximity assay (SPA); assay type: biochemical; parameters: made in house; CHAPS-solubilised 100,000 x g supernatant
T1 sequence (P37058 1-310): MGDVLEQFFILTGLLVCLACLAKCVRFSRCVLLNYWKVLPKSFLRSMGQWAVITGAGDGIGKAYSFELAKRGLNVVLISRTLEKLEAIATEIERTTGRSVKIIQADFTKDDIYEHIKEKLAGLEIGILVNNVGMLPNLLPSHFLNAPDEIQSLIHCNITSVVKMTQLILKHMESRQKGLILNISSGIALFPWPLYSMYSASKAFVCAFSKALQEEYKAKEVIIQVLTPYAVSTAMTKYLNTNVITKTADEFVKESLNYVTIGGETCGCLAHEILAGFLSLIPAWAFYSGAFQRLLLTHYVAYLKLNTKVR
Method: (§1) HEK293/17β-HSD3 cells were harvested by scraping or treatment with Cell Dissociation Buffer (Invitrogen) and collected in ice cold Phosphate Buffered Saline (PBS) containing a protease inhibitor cocktail (Complete Tabs, Roche Diagnostics). The cells were then pelleted by centrifugation at 1000 rpm and washed once more in the same buffer. The cells were then resuspended in 2× the cell pellet volume with ice cold lysis buffer (40 mM Tris-HCl pH7.5, 2 mM DTT, 1 mM EDTA, 10% Glycerol (v/v), 0.5% CHAPS (w/v), 1M 1-(3-sulfopropyl)pyridinium hydroxide, Complete Tab(s)) and dounce homogenized on ice. The crude lysate was then incubated on ice for 60 minutes to allow for membrane protein solubilization, followed by centrifugation at 100,000×g for 60 minutes at 4° C. The supernatant was then removed and dialyzed overnight at 4° C. against the enzyme storage buffer (40 mM Tris-HCl pH 7.5, 40 mM KCl, 2 mM DTT, 1 mM EDTA, 20% Glycerol (v/v), Complete Tab(s)). Protein concentration was determined by the Bradford assay, the enzyme was aliquotted, and stored at −80° C. Activity was assessed using the SPA described below.
SPA beads conjugated to anti-mouse IgG were incubated overnight in SPA Bead Buffer (50 mM Tris pH 8.0, 10% Glycerol (v/v)), with anti-Testosterone monoclonal antibody (2 μg antibody per 1 mg of SPA beads) under gentle rotation. The antibody saturated bead complex was then spun down at 500 rpm for 10 minutes at 4° C. and the beads were resuspended in SPA Bead Buffer at a final concentration of 0.5 mg/160 μL. The anti-T/SPA Beads were then stored at 4° C. until needed. Enzymatic assays were conducted in 30 μL total reaction volumes in 96-well white Optiplates (Perkin Elmer). The reaction buffer consisted of 50 mM MES pH 6.0, 2 mM DTT, 0.1% CHAPS, 3 mM NADPH, 10% Glycerol (v/v), 850 nM 4-Androstene-3,17-Dione, and 50 nM [3H]4-Androstene-3,17-Dione (Specific Activity 70–110Ci/mmol). Compounds were diluted such that the final concentration of ethanol and DMSO would not exceed 3% (v/v) and 1% (v/v) respectively, corresponding to concentrations that had little or no effect on enzymatic activity (data not shown). Previously prepared and frozen 17β-HSD3 enzyme was diluted into ice cold buffer containing 50 mM Mes, 40 mM KCl, 2 mM DTT, 1 mM EDTA, and 10% glycerol (v/v) and added last to the reaction mixture. The reaction was allowed to proceed for 60 minutes at room temperature and was stopped by the addition of 10 μL of 0.1N HCl. After the reactions were stopped, an excess of the anti-T/SPA Beads (0.5 mg) were added to each well to a final volume of 200 μL. The plates were sealed and shaken at ˜200 rpm on an orbital shaker at room temp for at least 90 minutes or overnight at 4° C. After allowing the beads to settle, the amount of [3H]Testosterone produced in each well was determined by scintillation counting on a Perkin Elmer TopCount instrument and collected as DPMs. The data was then analyzed and percent inhibition and/or IC50 values, based on 10 point serially diluted curves in duplicate or triplicate, were calculated using Microsoft Excel and XLFit programs. […] Input samples and unbound supernatants, from the enzymatic reactions, were quantitated by scintillation counting to aid in the calculation of bound versus free testosterone produced. Km values were calculated using the Lineweaver-Burke formula and plots where 1/v=(Km+[s])/(Vmax [s]). […]

[2] = target: T1, 17β-HSD3; parameters: made in house; CHAPS-solubilised 100,000 x g supernatant; conditions: read-out: Km for androstenedione, previously published value; human 17β-HSD3 prepared from testes microsomal fractionation; cited from earlier work
[3] = target: T1, 17β-HSD3; experiment: 17β-HSD3 SEAP assay (PSA reporter) in MDA MB 453/17β-HSD3 cells; assay type: cell-based; parameters: expressed in transfected cells
Method: Cultured MDA MB 453/17β-HSD3 cells were trypsinized, spun at 1000 rpm for 10 minutes, and resuspended in DMEM/10% cFBS supplemented with 5 mM BES at a concentration of 4×10^7 cells per mL. The cells (aliquots of 1×10^7 cells) were then transiently transfected with 3 μg of the PSA-SEAP construct by electroporation at 0.22 kVolts and 960 μFD with a time constant of […]. After a short recovery period, the cells were spun down and resuspended in DMEM/10% cFBS and plated into 96-well tissue culture plates (5×10^5 cells per well in 50 μL). After overnight adherence, the compounds were diluted in DMEM/10% and cFBS was added to the cells. 24 hours later, the medium was removed, fresh media containing the compounds was added in the presence of 10 nM Androstenedione, and this mixture was allowed to incubate for 24 hours. 25 μL of the culture supernatant was then removed and plated into 96-well black Optiplates (Perkin Elmer) for SEAP measurement as described by the reagent manufacturer (Tropix). Briefly, the supernatant was heat inactivated at 65° C. for 30 minutes and then allowed to cool to room temperature. Assay buffer (25 μL, Tropix) was then added and allowed to mix for 5 minutes followed by the addition of the Reaction buffer (25 μL, Tropix) and the plates were then incubated for 20 minutes in the dark. Plates were then read using a Packard Instruments TopCount with luminescent detection and signal was captured for 10 seconds per well and photon emission (cps) was averaged. A standard MTS assay (Promega) as described by the manufacturer, was performed in parallel to normalize the data based on cell numbers. Data analysis including percent inhibition and IC50 determination, based on 10 point serially diluted curves in duplicate, was then performed using Microsoft Excel and XLFit.
The analysis of 17β-HSD3 steroid conversion by TLC is hampered by the limitation to examine large numbers of compounds. […] To test this system, a prostate specific antigen (PSA) reporter plasmid was transfected into MDA-MB453 cells stably expressing 17β-HSD3 and stimulated with different concentrations of androstenedione (FIG. 5B).
To evaluate the suitability of this cellular assay for monitoring 17β-HSD3 cell based activity, the inhibitory effects of 18β-glycyrrhetinic acid and […] were examined.

[4] = substrate: C[C@]12CCC(=O)C=C1CC[C@@H]1[C@@H]2CC[C@]2(C)C(=O)CC[C@@H]12; experiment: 17β-HSD3 scintillation proximity assay (SPA); assay type: biochemical, human; conditions: other: 17β-HSD3 from HEK293 transfectants; 0.01 to 10 μM input androstenedione; 3 mM NADPH
Method: as §1, with “The crude lysate was then incubated on ice for 60 minutes to allow for membrane protein solubilization, followed by centrifugation at 100,000×g for 60 minutes at 4° C. The supernatant was then removed and dialyzed overnight at 4° C. against the enzyme storage buffer (40 mM Tris-HCl pH 7.5, 40 mM KCl, 2 mM DTT, 1 mM EDTA, 20% Glycerol (v/v), Complete Tab(s)).” left out
SPA beads conjugated to anti-mouse IgG were incubated overnight in SPA Bead Buffer (50 mM Tris pH 8.0, 10% Glycerol (v/v)), with anti-Testosterone monoclonal antibody (2 μg antibody per 1 mg of SPA beads) under gentle rotation. […] After allowing the beads to settle, the amount of [3H]Testosterone produced in each well was determined by scintillation counting on a Perkin Elmer TopCount instrument and collected as DPMs. The data was then analyzed and percent inhibition and/or IC50 values, based on 10 point serially diluted curves in duplicate or triplicate, were calculated using Microsoft Excel and XLFit programs. […]

Molecule: NC(=O)C1=CN([C@@H]2O[C@H](COP(=O)(O)OP(=O)(O)OC[C@H]3O[C@@H](n4cnc5c(N)ncnc54)[C@H](OP(=O)(O)O)[C@@H]3O)[C@@H](O)[C@H]2O)C=CC1 [NADPH]
- Km ([1]; Lineweaver-Burke plots, read-out: Km for NADPH): 30 µM

Molecule: C[C@]12CCC(=O)C=C1CC[C@@H]1[C@@H]2CC[C@]2(C)C(=O)CC[C@@H]12 [androstenedione]
- Km [2]: 0.72 µM
- induction of PSA reporter [3]: 9 fold
- activation of PSA reporter ([3]; 12 nM androstenedione, 17β-HSD3-MDA-MB453 transfectants): 9 fold
- induction of PSA reporter ([3]; 1 μM androstenedione, 17β-HSD3-MDA-MB453 cells): 25 fold

Molecule: CC(C)(O)C(=O)Nc1ccc([N+](=O)[O-])c(C(F)(F)F)c1 [hydroxyflutamide]
- 17β-HSD3 inhibitory activity in the SPA ([1]; FIG. 3B): did not display 17β-HSD3 inhibitory activity

B1: human 17β-HSD3 (Homo sapiens) (protein)
chain: T1 sequence (P37058 1-310)
notes: made in house; CHAPS-solubilised 100,000 x g supernatant
- Km [4]: 0.92 µM
